{"source": "patent EP3033433B1", "about": "“DETECTION OF ORGANOPHOSPHATE RESISTANCE IN CRUSTACEANS” (priority 2013, dated 2015)", "key": {"[1]": {"biological_target": "Phe371Tyr, Drosophila amino acid sequence (Drosophila melanogaster, UniProt P07140, F409Y)", "details": "Phe371Tyr mutant versus wild type enzyme; cited from earlier work"}, "[2]": {"system": "acetyl cholin esterase from sea lice (L. salmonis)", "details": "within 2 minutes, 0.01 µM azamethiphos, samples collected 2000 - 2002, cited from earlier work"}, "sea lice (L. salmonis) [3]": {"system": "sea lice (L. salmonis)", "experiment": "Bioassay of sea lice strains' sensitivity to azamethiphos (exposure to increasing concentrations)", "format": "in vivo", "details": "Lepeophtheirus salmonis", "source_text": "(§1) The parasites had to be tested by a bioassay method, i.e. exposure to increasing concentrations of the agent to see how much they tolerated. As no bioassay method for salmon lice sensitivity towards azamethiphos was published, an unpublished protocol had to be used, with necessary adaptations. To be on the safe side, small scale laboratory treatments with fish infected with parasites containing only the wild-type enzyme versus fish infected with parasites containing the mutation were also successfully performed and confirmed the bioassay results.\nThe sensitivity of the strains analyzed was tested by traditional bioassays and small scale treatments (Helgesen et al., 2013). The history of the strains were LSAlta: Sampled 2010, inbred for approx. 10 generations. Fully sensitive to all agents LSBjugn: Sampled 2008, inbred for approx. 15 generations. Moderately resistant to azamethiphos, pyrethroids and emamectin benzoate. LSGulen: Sampled in 2004, inbred for approx. 25 generations. Fully sensitive to all agents LSHitra: Sampled in 2011. Resistant towards azamethiphos (not tested for other agents). Inbred for approx. 7 generations. LSHitra-s: Subset of LSHitra where fish with parasites were treated with 100 ppb azamethiphos (Salmosan™) for 30 minutes in a 200 liter fibre-glass tank. The subset is the surviving parasites after treatment. LSVeso: Sampled in 2012 in the field (Otterøya) shortly after a full-scale treatment with azamethiphos in the farm. Only surviving parasites were sampled."}, "sea lice (L. salmonis) [4]": {"system": "sea lice (L. salmonis)", "experiment": "Small scale laboratory treatment of fish infected with salmon lice", "format": "in vivo, Lepeophtheirus salmonis", "details": "100 ppb azamethiphos", "source_text": "as §1\nThe strains were: LSAlta: Sampled 2010, inbred for approx. 10 generations. No history of insensivity towards azamethiphos. LSBjugn: Sampled 2008, inbred for approx. 15 generations. History of insensitivity towards azamethiphos. LSGulen: Sampled in 2004, inbred for approx. 25 generations. No history of insensivity towards azamethiphos. LSHitra: Sampled in 2011, inbred for approx. 7 generations. History of insensitivity towards azamethiphos. LSHitra-s: Subset of LSHitra where fish with parasites were treated with 100 ppb azamethiphos (Salmosan™) for 30 minutes in a 200 liter fibre-glass tank. The subset is the surviving parasites after treatment. […]\nThe sensitivity of the strains analyzed was tested by traditional bioassays and small scale treatments (Helgesen et al., 2013). […]"}}, "note": "Where two headings read alike, the source gives them in different places.", "data": [{"molecule": "CCOP(=O)(OCC)Oc1ccc([N+](=O)[O-])cc1", "note": "[paraoxon]", "values": [{"measurement": "decrease the sensitivity of the enzyme", "setting": "[1]", "value": 200, "unit": "fold"}]}, {"molecule": "COP(=O)(OC)SCn1c(=O)oc2cc(Cl)cnc21", "note": "[azamethiphos, S-[(6-Chloro-2-oxo[1,3]oxazolo[4,5-b]pyridin-3(2H)-yl)methyl]O,O-dimethyl phosphorothioate]", "values": [{"measurement": "acetyl cholin esterase inhibited", "setting": "[2]; samples with bi-exponential decline rate (most likely heterozygot resistant), activity remained at this level", "value": "approx. 80%"}, {"measurement": "enzyme activity inhibited", "setting": "[2]; samples with mono-exponential decline rate (most likely wild type)", "value": "inhibited completely"}, {"measurement": "EC50", "setting": "sea lice (L. salmonis) [3]; strain LSAlta", "value": 2.1, "unit": "ng/mL"}, {"measurement": "EC50", "setting": "sea lice (L. salmonis) [3]; strain LSBjugn, read-out: EC50", "value": 4.5, "unit": "ng/mL"}, {"measurement": "EC50", "setting": "sea lice (L. salmonis) [3]; strain LSGulen, read-out: EC50", "value": 1.8, "unit": "ng/mL"}, {"measurement": "EC50", "setting": "sea lice (L. salmonis) [3]; strain LSHitra, read-out: EC50", "value": 60, "unit": "ng/mL"}, {"measurement": "EC50", "setting": "sea lice (L. salmonis) [3]; strain LSVeso, tested at only one concentration, read-out: EC50", "value": "> 100", "unit": "ng/mL"}, {"measurement": "Treatment efficacy (%) mean", "setting": "sea lice (L. salmonis) [4]; strain LSAlta (fully sensitive)", "value": 100, "unit": "%"}, {"measurement": "Treatment efficacy (%) mean", "setting": "sea lice (L. salmonis) [4]; strain LSHitra (resistant)", "value": 50, "unit": "%"}]}]}
